Test results taken from US12162878B2 (HINOVA PHARMACEUTICALS INC., priority 2018, dated 2024).

Test system: CWR22RV1 cells
Assay: Inhibition of proliferation of CWR22RV1 cells (CCK-8)
Format: cell-based, human
Details: Homo sapiens, CWR22Rv1, 144 h, 6 days
Method in brief: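 Cells seeded at 1500/well, cultured overnight, then exposed to compounds in 3-fold dilutions (9 concentrations from 10 μM top final, 0.1% DMSO) for 6 days at 37 °C. Viability read by CCK-8 absorbance at 450 nm after 2.5 h; IC50 from dose-response inhibition fit.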

SMILES: Cn1cc(-c2cc(S(C)(=O)=O)ccc2N2CCC3(CC2)COC3)c2cc[nH]c2c1=O [Compound 177, 6-methyl-4-(5-(methylsulfonyl)-2-(2-oxa-7-aza-spiro[3.5]nonan-7-yl)phenyl)-1H-pyrrolo[2,3-c]pyridin-7(6H)-one]
- IC50: 17 nM

SMILES: Cn1cc(-c2cc(NS(C)(=O)=O)ccc2N2CCC3(CC3)C2)c2cc[nH]c2c1=O [Compound 246, N-(3-(6-methyl-7-oxo-6,7-dihydro-1H-pyrrolo[2,3-c]pyridin-4-yl)-4-(5-aza-spiro[2.4]heptan-5-yl)phenyl)methanesulfonamide]
- IC50: 30 nM

SMILES: Cn1cc(-c2cc(S(C)(=O)=O)ccc2N2CCCC2CCl)c2cc[nH]c2c1=O (stereo not shown) [Compound 249, 4-(2-(2-(chloromethyl)pyrrolidin-1-yl)-5-(methanesulfonyl)phenyl)-6-methyl-1H-pyrrolo[2,3-c]pyridin-7(6H)-one]
- IC50: 130 nM

SMILES: [2H]C([2H])([2H])n1cc(-c2cc(NS(=O)(=O)CC)ccc2N2CCC3(CC2)CC3C(=O)O)c2cc[nH]c2c1=O (stereo not shown) [Compound 53, 6-(4-(ethylsulfonamide)-2-(6-trideuteromethyl-7-oxo-6,7-dihydro-1H-pyrrolo[2,3-c]pyridin-4-yl)phenyl)-6-aza-spiro[2.5]octan-1-carboxylic acid]
- IC50: 550 nM

SMILES: Cn1cc(-c2cc(S(C)(=O)=O)ccc2N2CCC3(CC2)CC3CO)c2cc[nH]c2c1=O (stereo not shown) [Compound 179, 4-(2-(1-(hydroxymethyl)-6-aza-spiro[2.5]octan-6-yl)-5-(methylsulfonyl)phenyl)-6-methyl-1H-pyrrolo[2,3-c]pyridin-7(6H)-one]
- IC50: 51 nM

SMILES: [2H]C([2H])([2H])n1cc(-c2cc(NS(=O)(=O)CC)ccc2N2CC3(COC3)C2)c2cc[nH]c2c1=O [Compound 49, N-(3-(6-trideuteromethyl-7-oxo-6,7-dihydro-1H-pyrrolo[2,3-c]pyridin-4-yl)-4-(2-oxa-6-aza-spiro[3.3]heptan-6-yl)phenyl)ethanesulfonamide]
- IC50: 420 nM

SMILES: CCCCS(=O)(=O)c1ccc(N2CC3(CCC3)C2)c(-c2cn(C)c(=O)c3[nH]ccc23)c1 [Compound 32]
- IC50: 65 nM

SMILES: [2H]C([2H])([2H])n1cc(-c2cc(S(C)(=O)=O)ccc2N2CCCC3(CC3)C2)c2cc[nH]c2c1=O [Compound 57, 6-trideuteromethyl-4-(5(methylsulfonyl)-2-(5-aza-spiro[2.5]octan-5-yl)phenyl)-1H-pyrrolo[2,3-c]pyridin-7(6H)-one]
- IC50: 25 nM

SMILES: Cn1cc(-c2cc(S(C)(=O)=O)ccc2N2CCCC3(CC3)C2)c2cc[nH]c2c1=O [Compound 27, 6-methyl-4-(5(methylsulfonyl)-2-(5-aza-spiro[2.5]octan-5-yl)phenyl)-1H-pyrrolo[2,3-c]pyridin-7(6H)-one]
- IC50: 31 nM

SMILES: [2H]C([2H])([2H])n1cc(-c2cc(S(N)(=O)=O)ccc2N2CCC3(CC3)C2)c2cc[nH]c2c1=O [Compound 200, 3-(6-trideuteromethyl-7-oxo-6,7-dihydro-1H-pyrrolo[2,3-c]pyridin-4-yl)-4-(5-aza-spiro[2.4]heptan-5-yl)benzensulfonamide]
- IC50: 6.7 nM

SMILES: [2H]C([2H])([2H])n1cc(-c2cc(S(C)(=O)=O)ccc2N2CCC3(CC2)CC3C(N)=O)c2cc[nH]c2c1=O (stereo not shown) [Compound 185, 6-(2-(6-trideuteromethyl-7-oxo-6,7-dihydro-1H-pyrrolo[2,3-c]pyridin-4-yl)-4-(methylsulfonyl)phenyl)-6-aza-spiro[2.5]octan-1-formamide]
- IC50: 1040 nM

SMILES: [2H]C([2H])([2H])n1cc(-c2cc(S(=O)(=O)C(C)C)ccc2N2CCC3(CC2)CC3(F)F)c2cc[nH]c2c1=O [Compound 233, 4-(2-(1,1-difluoro-6-aza-spiro[2.5]octan-6-yl)-5-(isopropylsulfonyl)phenyl)-6-trideuteromethyl-1H-pyrrolo[2,3-c]pyridin-7(6H)-one]
- IC50: 1.3 nM

SMILES: [2H]C([2H])([2H])n1cc(-c2cc(NS(=O)(=O)CCCC)ccc2N2CC3(CCC3)C2)c2cc[nH]c2c1=O [Compound 46, N-(3-(6-trideuteromethyl-7-oxo-6,7-dihydro-1H-pyrrolo[2,3-c]pyridin-4-yl)-4-(2-aza-spiro[3.3]heptan-2-yl)phenyl)butane-1-sulfonamide]
- IC50: 130 nM

SMILES: Cn1cc(-c2cc(S(=O)(=O)C3COC3)ccc2N2CC3(CCC3)C2)c2cc[nH]c2c1=O [Compound 31, 6-methyl-4-(5-(oxetane-3-ylsulfonyl)-2-(2-aza-spiro[3.3]heptan-2-yl)phenyl)-1H-pyrrolo[2,3-c]pyridin-7(6H)-one]
- IC50: 50 nM

SMILES: [2H]C([2H])([2H])n1cc(-c2cc(S(=O)(=O)C(C)C)ccc2N2CCC3(CC2)CC3)c2cc[nH]c2c1=O [Compound 234, 4-(5-(isopropylsulfonyl)-2-(6-aza-spiro[2.5]octan-6-yl)phenyl)-6-trideuteromethyl-1H-pyrrolo[2,3-c]pyridin-7(6H)-one]
- IC50: 0.9 nM

SMILES: Cn1cc(-c2cc(S(=O)(=O)C3CC3)ccc2N2CC3(COC3)C2)c2cc[nH]c2c1=O [Compound 37, 4-(5-(cyclopropylsulfonyl)-2-(2-oxa-6-aza-spiro[3.3]heptan-6-yl)phenyl)-6-methyl-1H-pyrrolo[2,3-c]pyridin-7(6H)-one]
- IC50: 490 nM

SMILES: CCS(=O)(=O)Nc1ccc(N2CCC3(CC2)CC3C(=O)O)c(-c2cn(C)c(=O)c3[nH]ccc23)c1 (stereo not shown) [Compound 20, 6-(4-(ethylsulfonamide)-2-(6-methyl-7-oxo-6,7-dihydro-1H-pyrrolo[2,3-c]pyridin-4-yl)phenyl)-6-aza-spiro[2.5]octan-1-carboxylic acid]
- IC50: 550 nM

SMILES: Cn1cc(-c2cc(S(C)(=O)=O)ccc2N2CCC3(CC2)CC3C(=O)O)c2cc[nH]c2c1=O (stereo not shown) [Compound 39, 6-(2-(6-methyl-7-oxo-6,7-dihydro-1H-pyrrolo[2,3-c]pyridin-4-yl)-4-(methylsulfonyl)phenyl)-6-aza-spiro[2.5]octan-1-carboxylic acid]
- IC50: 2410 nM

SMILES: Cn1cc(-c2cc(NS(C)(=O)=O)ccc2N2CCC3(CC2)COC3)c2cc[nH]c2c1=O [Compound 195, N-(3-(6-methyl-7-oxo-6,7-dihydro-1H-pyrrolo[2,3-c]pyridin-4-yl)-4-(2-oxa-7-aza-spiro[3.5]nonan-7-yl)phenyl)methanesulfonamide]
- IC50: 160 nM

SMILES: CCS(=O)(=O)Nc1ccc(N2CCC3(CC3)C2)c(-c2cn(C)c(=O)c3[nH]ccc23)c1 [Compound 7, N-(3-(6-methyl-7-oxo-6,7-dihydro-1H-pyrrolo[2,3-c]pyridin-4-yl)-4-(5-aza-spiro[2.4]heptan-5-yl)phenyl)ethylsulfonamide]
- IC50: 18 nM

SMILES: [2H]C([2H])([2H])n1cc(-c2cc(NS(=O)(=O)CC)ccc2N2CCC3(CC3)C2)c2cc[nH]c2c1=O [Compound 40, N-(3-(7-oxo-6-(trideuteromethyl)-6,7-dihydro-1H-pyrrolo[2,3-c]pyridin-4-yl)-4-(5-aza-spiro[2.4]heptan-5-yl)phenyl)ethylsulfonamide]
- IC50: 15 nM

SMILES: [2H]C([2H])([2H])n1cc(-c2cc(S(C)(=O)=O)ccc2N2CCC3(CC2)CC3C(=O)OCC)c2cc[nH]c2c1=O (stereo not shown) [Compound 68, ethyl 6-(2-(6-trideuteromethyl-7-oxo-6,7-dihydro-1H-pyrrolo [2,3-c]pyridin-4-yl)-4-(methylsulfonyl)phenyl)-6-aza-spiro[2.5]octan-1-carboxylate]
- IC50: 530 nM
